Experimental data published in paper PMC9298194, “Clinical Pharmacokinetics of Daprodustat: Results of an Absorption, Distribution, and Excretion Study With Intravenous Microtracer and Concomitant Oral Doses for Bioavailability Determination” (Clinical Pharmacology in Drug Development, 2021).
Where “and” joins values, the source holds several entries; their conditions need not be identical. Equal entries are not always repeated. Marks after values point to notes of the source that are not given here.

What was measured:
[1] = Blood and plasma total radioactivity pharmacokinetics after [14C]-GSK1278863; type: in vivo, human; conditions: for tmax, total radioactivity: median (range)
Protocol: As per standard practice for administration of radiolabeled drug, the IV and oral dosing solutions were analyzed for daprodustat via assessment of the radioactivity and through application of the predetermined specific activity. Whole blood samples were collected for measurement of each of the following: blood total radioactivity in period 2 and plasma total radioactivity in period 1, plasma concentrations of daprodustat, and the 6 predominant circulating metabolites in periods 1 and 2. Blood samples were collected at 1, 3, and 6 hours after dosing for blood assessments. Blood samples were collected for plasma assessments before dosing and at 0.50, 1, 1.25, 1.5, 2, 3, 4, 6, 8, 10, 12, 24, 36, 48, 72, 96, 120, and 144 hours after dosing.
Whole blood samples for unlabeled assays were collected into K3 ethylenediaminetetraacetic acid tubes, gently inverted several times and immediately placed on ice water. Samples were then centrifuged at 1500 × g for 15 minutes; the supernatant plasma was transferred to Nunc tubes and stored at −20°C before shipment. Samples for unlabeled daprodustat and specific assay metabolite measurements were shipped frozen to PPD Laboratories (Middleton, Wisconsin). Samples for radioactivity measurements were shipped frozen to either GSK Research and Development (Ware, Hertfordshire, UK; period 1) or Covance (period 2). Some period 2 plasma samples were subsequently analyzed by accelerator mass spectrometry (AMS) at Ware (UK) after being not quantifiable by LSC analysis.
Human urine, feces, and blood samples from treatment period 2 were analyzed by Covance using LSC. The LLQ for urine using LSC was 5.63 ng Eq/mL, using a 1000 μL aliquot of human urine. The LLQ for blood using LSC was 11.6 ng Eq/mL, using a 400 μL aliquot of human blood. The LLQ for feces using LSC was 25.3 ng Eq/mL, using a 0.2‐ to 0.4‐g aliquot of human feces. Treatment period 2 plasma samples that were not quantifiable following LSC analysis at Covance were subsequently reanalyzed for total radioactivity by AMS at GSK. The LLQ using AMS was 15.8 pg Eq/mL, using a 50 μL aliquot of human plasma.
Plasma daprodustat and [^14C]‐GSK1278863 plasma and blood total radioactivity concentration‐time data were analyzed by noncompartmental methods with WinNonlin Version 6.3 or above (Certara, Princeton, New Jersey). Calculations were based on the actual sampling times recorded during the study. From the plasma concentration‐time data, the following PK parameters were determined for daprodustat, its metabolites, [^14C]‐GSK1278863, and total radioactivity, as the data permitted: maximum observed plasma concentration (Cmax), time to Cmax (tmax), area under the plasma concentration–time curve (AUC) from time 0 to the last measurable concentration (AUC0‐t), AUC from time 0 extrapolated to infinity (AUC0–inf), and apparent terminal phase half‐life (t½), following oral and IV dosing. Additionally, daprodustat volume of distribution at steady state (Vss) and the total systemic clearance (CL) were derived following IV dosing, and daprodustat absolute bioavailability (F) was determined from the oral tablet and IV plasma PK data from treatment period 1 with the following equation: F=AUCpo/AUCIV×doseIV/dosepo
To assess relative exposure levels between parent daprodustat and the measured metabolites, the ratio of parent daprodustat/total radioactivity was calculated for the plasma PK parameters following IV and oral administration of [^14C]‐GSK1278863: Cmax, AUC0‐t, and AUC0‐inf.

[2] = ref GSK data on file; cited from earlier work
[3] = Metabolite load, hepatic extraction, fraction escaping gut metabolism and fraction absorbed analyses; type: in vivo, human
Protocol: To assess the extent of metabolism and absorption of daprodustat, the plasma PK parameters: metabolite load, fraction escaping metabolism by the gut wall (Fg), hepatic extraction (Eh), and fraction absorbed (Fabs) were calculated on the basis of equations found in Harrell et al.[18] All parameters for analysis have been conducted on plasma results (assuming a blood to plasma ratio of 1) but when appropriate, the actual human blood:plasma ratio of 1.23 (internal GSK reports) of daprodustat has been applied to specific parameters to aid interpretation. (1) HepaticExtraction:Eh(blood)=CLbtotal−CLbrenal/QH (2) Fractionescapinglivermetabolism:Fh=1−Eh(blood) (3) MetaboliteLoadTRA=totalradioactivity:MLroute=AUCTRAroute−AUCroute/AUCTRAroute (4) Fractionescapinggut:Fg=1−MLoral−MLIV/Fh (5) Fractionabsorbed:Fabs=Foral/Fh×Fg

[4] = Safety and tolerability (adverse events) in healthy male participants; type: in vivo, human; conditions: for deaths or serious adverse events: 6 healthy men
Source text: Safety and tolerability measures included assessment of adverse events (AEs), serious adverse events (SAEs), clinical laboratory findings, vital signs (systolic and diastolic blood pressure and pulse rate), ECGs, and concurrent medications. An AE was defined as any untoward medical occurrence in a participant temporally associated with the use of an investigational product, whether or not considered related to the investigational product. […] The investigator or site staff was responsible for detecting, documenting, and reporting events that met the definition of an AE or SAE.

[5] = IV infusion, plasma, mean (SD), n = 5
[6] = oral solution, plasma, mean (SD)
[7] = Period 1: 6‐mg oral tablet + 50‐μg IV

Compound: O=C(O)CNC(=O)C1C(=O)N(C2CCCCC2)C(=O)N(C2CCCCC2)C1=O [Daprodustat]
- AUC0‐inf ratio of plasma daprodustat to plasma total radioactivity ([1]; IV administration): 0.40
- AUC0‐t ratio of plasma daprodustat to plasma total radioactivity ([1]; IV administration): 0.40
- Cmax ratio of plasma daprodustat to plasma total radioactivity ([1]; IV administration): 0.68
- AUC0‐t, total radioactivity ([1]; IV infusion, plasma, mean (SD)): 6.62 (1.20) ng Eq • h/mL
- Cmax, total radioactivity ([1]; IV infusion, plasma, mean (SD)): 3.04 (0.49) ng Eq/mL
- AUC0‐inf, total radioactivity [1, 5]: 6.79 (1.31) ng Eq • h/mL
- CL, total radioactivity [1, 5]: 7.59 (1.50) μg/[ng Eq • h/mL]
- Vss, total radioactivity [1, 5]: 36.3 (19.6) μg/[ng Eq/mL]
- t½, total radioactivity [1, 5]: 8.88 (6.58) h
- tmax, total radioactivity ([1]; IV infusion, plasma): 0.98 h
- tmax, total radioactivity ([1]; IV infusion, plasma, listed as [^14C]‐GSK1278863): 0.983 (0.983−1.25) h
- parent daprodustat as share of total circulating radioactivity in plasma ([1]; following IV and oral solution administration, AUC ratio): Approximately 40%
- blood:plasma ratio of total radioactivity ([1]; from Cmax in blood and plasma after oral solution): 0.46
- AUC0‐inf ratio of plasma daprodustat to plasma total radioactivity ([1]; oral solution administration): 0.42
- AUC0‐t ratio of plasma daprodustat to plasma total radioactivity ([1]; oral solution administration): 0.43
- Cmax ratio of plasma daprodustat to plasma total radioactivity ([1]; oral solution administration): 0.87
- Cmax, total radioactivity ([1]; oral solution, blood, mean (SD), listed as [^14C]‐GSK1278863): 302 ng Eq/mL and 302 (95.6) ng Eq/mL
- tmax, total radioactivity ([1]; oral solution, blood): 1.00 (1.00−3.00) h
- AUC0‐t, total radioactivity ([1]; oral solution, blood, t = 6 hours, mean (SD)): 835 (154) ^b ng Eq • h/mL
- AUC0‐inf, total radioactivity [1, 6]: 2312 (447) ng Eq • h/mL
- AUC0‐t, total radioactivity [1, 6]: 2239 (441) ng Eq • h/mL
- t½, total radioactivity [1, 6]: 62.4 (9.62) h
- Cmax, total radioactivity ([1]; oral solution, plasma, mean (SD), listed as [^14C]‐GSK1278863): 654 ng Eq/mL and 654 (219) ng Eq/mL
- tmax, total radioactivity ([1]; oral solution, plasma): 0.76 h
- tmax, total radioactivity ([1]; oral solution, plasma, listed as [^14C]‐GSK1278863): 0.758 (0.500−3.00) h
- protein binding [2]: > 99%
- Eh (hepatic extraction) ([3]; [14C] IV infusion, fraction, adjusted with blood:plasma ratio of 1.23, mean (SD), n = 3): 0.181 (0.050)
- MLIV (plasma metabolite load) ([3]; [14C] IV infusion, mean (SD), n = 3): 0.623 (0.080)
- MLIV (plasma metabolite load) ([3]; [14C] IV infusion, mean (SD), n = 3, listed as daprodustat): ≈ 0.623 (0.080)
- Fabs (fraction absorbed) ([3]; [14C] oral solution, fraction, reduced to Foral/Fh, blood:plasma ratio 1.23, mean (SD), n = 3): 0.811 (0.134)
- Fg (fraction escaping metabolism by the gut wall) ([3]; [14C] oral solution, mean (SD), n = 3): > 1
- MLPO (plasma metabolite load) ([3]; [14C] oral solution, mean (SD), n = 6): ~0.584 (0.060)
- daprodustat absorbed across the gastrointestinal tract (Fabs) ([3]; following oral solution administration): ≈ 80% and 81% and ≈ 81%
- hepatic extraction ([3]; from blood CL, human liver blood flow of 87 L/h): ≈ 18% and 18%
- participants reporting AEs ([4]; 3 of 6 participants): 50%
- Back pain [4, 7]: 1 (17) n (%)
- Decreased appetite [4, 7]: 1 (17) n (%)
- Headache [4, 7]: 1 (17) n (%)
- Musculoskeletal chest pain [4, 7]: 0 n (%)
- Myalgia [4, 7]: 1 (17) n (%)
- Oropharyngeal pain [4, 7]: 0 n (%)
- Back pain ([4]; Period 2: 25‐mg oral solution): 0 n (%)
- Decreased appetite ([4]; Period 2: 25‐mg oral solution): 0 n (%)
- Headache ([4]; Period 2: 25‐mg oral solution): 1 (17) n (%)
- Musculoskeletal chest pain ([4]; Period 2: 25‐mg oral solution): 1 (17) n (%)
- Myalgia ([4]; Period 2: 25‐mg oral solution): 0 n (%)
- Oropharyngeal pain ([4]; Period 2: 25‐mg oral solution): 1 (17) n (%)
- Back pain ([4]; Total): 1 (17) n (%)
- Decreased appetite ([4]; Total): 1 (17) n (%)
- Headache ([4]; Total): 1 (17) n (%)
- Musculoskeletal chest pain ([4]; Total): 1 (17) n (%)
- Myalgia ([4]; Total): 1 (17) n (%)
- Oropharyngeal pain ([4]; Total): 1 (17) n (%)
- deaths or serious adverse events ([4]; both treatment periods): no deaths or serious or significant adverse events reported
- deaths or serious adverse events ([4]; both treatment periods, listed as daprodustat): No deaths or other SAEs
- total number of AEs reported ([4]; both treatment periods, N = 6): 7
- tolerability ([4]; oral tablet, microtracer IV or oral solution dose): generally well tolerated
